The source of these data is patent US11891396B1, “5-substituted pyrido[3″,4″:4′,5′]pyrrolo[3′,2′:4,5]imidazo[1,2-a]pyrazine compounds as CK2 inhibitors” (KING FAISAL UNIVERSITY, priority 2023, dated 2024).

For one assay, the system named is MIAPaCa-2 (pancreas). Put plainly: In vitro cytotoxic activity assay (MTT), MIAPaCa-2. In kind it is cell-based. The settings on record: Homo sapiens, MIA PaCa-2; MIAPaCa-2 (pancreas) cells, exposed for 96 hours; read-out: IC50, concentration eliciting 50% inhibition of cell proliferation. Here is the method:
(§1) Compounds 1-15 were screened for their in vitro cytotoxic activity utilizing a 3-(4,5-dimethyl-thiazol-2-yl)-2,5-diphenyltetrazolium bromide (MTT) assay against selected cancer human cell lines consisting of PC3 (prostate), HCT116 (colon), A375 (melanoma), H1299 (lung), MIAPaCa-2 (pancreas), HL60 (leukemia), MCF7 (breast), MDA-MB-231 (breast) (T. Mosmann, J. Immunol. Meth., 1983, 65, 55-63). The cells were cultured at 37° C. in RMPI1640 medium supplemented with 10% fetal bovine serum, 50 IU/mL penicillin, and 50 μg/mL streptomycin in a 5% CO2 incubator. All cells were sub-cultured 3 times/week by trypsinisation. Viable cells were seeded and allowed to adhere for 12 h before a test drug was added in 96-well plates at an initial density of 1.0×10^5 cells/mL. Tumour cell lines were separately exposed to various concentrations of the tested compounds followed by incubation at a temperature of 37° C. during 96 h inside a medium of fresh RMPI 1640. Cells were subsequently incubated at 37° C. using MTT at 0.5 mg/mL during 4 h. After removal of supernatant, formazan crystals were dissolved in isopropanol and the optical density was measured at 570 nm. CX-4945 was used as a positive control.

The subject of the next assay is PC3 (prostate). The experiment in a line: In vitro cytotoxic activity assay (MTT), PC3. In kind it is cell-based. The settings on record: Homo sapiens, Prostate cell; PC3 (prostate) cells, exposed for 96 hours; read-out: IC50, concentration eliciting 50% inhibition of cell proliferation. Here is the method:
as §1

In the next assay the test system is HCT116 (colon). Put plainly: In vitro cytotoxic activity assay (MTT), HCT116. It is filed as cell-based. The settings on record: Homo sapiens, HCT-116; HCT116 (colon) cells, exposed for 96 hours; read-out: IC50, concentration eliciting 50% inhibition of cell proliferation. Here is the method:
as §1

The test system of a further assay is MDA-MB-231 (breast). Put plainly: In vitro cytotoxic activity assay (MTT), MDA-MB-231. In kind it is cell-based. The settings on record: Homo sapiens; MDA-MB-231 (breast) cells, exposed for 96 hours; read-out: IC50, concentration eliciting 50% inhibition of cell proliferation. Here is the method:
as §1

The subject of the next assay is MCF7 (breast). The experiment in a line: In vitro cytotoxic activity assay (MTT), MCF7. It is filed as cell-based. The settings on record: Homo sapiens; MCF7 (breast) cells, exposed for 96 hours; read-out: IC50, concentration eliciting 50% inhibition of cell proliferation. Here is the method: as §1
For another assay, the system named is H1299 (lung). Put plainly: In vitro cytotoxic activity assay (MTT), H1299. In kind it is cell-based. The settings on record: Homo sapiens, NCI-H1299; H1299 (lung) cells, exposed for 96 hours; read-out: IC50, concentration eliciting 50% inhibition of cell proliferation. Here is the method: as §1
The next assay addresses T1, recombinant human CK2 (Homo sapiens, UniProt P68400).
T1 construct: purchased Millipore
Put plainly: CK2 Kinase Assay (33P-ATP, substrate peptide RRRDDDSDDD). It is filed as biochemical. The settings on record: final ATP concentration 15 μM, 10 min at 30° C.; read-out: protein kinase CK2 IC50. Here is the method:
CK2 Kinase Assay was conducted using the protocol as described in Pierre F. et al; J. Med. Chem. 2011, 54, 635-654. The tested compounds in aqueous solution were added at a volume of 10 μL to a reaction mixture comprising 10 μL of assay dilution buffer (ADB; 20 mM MOPS, pH 7.2, 25 mM β-glycerol phosphate, 5 mM EGTA, 1 mM sodium orthovanadate, and 1 mM dithiothreitol), 10 μL of substrate peptide (RRRDDDSDDD, dissolved in ADB at a concentration of 1 mM), 10 μL of recombinant human CK2 (RROP-holoenzyme, 25 ng dissolved in ADB; Millipore). Reactions were initiated by the addition of 10 μL of ATP solution (90% 75 mMMgCl2, 75 μM ATP (final ATP concentration: 15 μM) dissolved in ADB; 10% [γ-33P] ATP (stock 1 mCi/100 L; 3000 Ci/mmol (Perkin-Elmer) and maintained for 10 min at 30° C. The reactions were quenched with 100 μL of 0.75% phosphoric acid and then transferred to and filtered through a phosphor cellulose filter plate (Millipore). After washing each well five times with 0.75% phosphoric acid, the plate was dried under vacuum for 5 min and, following the addition of 15 μL of scintillation fluid to each well, the residual radioactivity was measured using a Wallac luminescence counter. The IC50 values were derived from eight concentrations of test inhibitors.

For another assay, the system named is HL60 (leukemia). The experiment in a line: In vitro cytotoxic activity assay (MTT), HL60. It is filed as cell-based. The settings on record: Homo sapiens, HL-60; HL60 (leukemia) cells, exposed for 96 hours; read-out: IC50, concentration eliciting 50% inhibition of cell proliferation. Here is the method:
as §1

The next assay concerns A375 (melanoma). The experiment in a line: In vitro cytotoxic activity assay (MTT), A375. In kind it is cell-based. The settings on record: Homo sapiens, A-375; A375 (melanoma) cells, exposed for 96 hours; read-out: IC50, concentration eliciting 50% inhibition of cell proliferation. Here is the method:
as §1

T1 sequence (P68400 whole entry): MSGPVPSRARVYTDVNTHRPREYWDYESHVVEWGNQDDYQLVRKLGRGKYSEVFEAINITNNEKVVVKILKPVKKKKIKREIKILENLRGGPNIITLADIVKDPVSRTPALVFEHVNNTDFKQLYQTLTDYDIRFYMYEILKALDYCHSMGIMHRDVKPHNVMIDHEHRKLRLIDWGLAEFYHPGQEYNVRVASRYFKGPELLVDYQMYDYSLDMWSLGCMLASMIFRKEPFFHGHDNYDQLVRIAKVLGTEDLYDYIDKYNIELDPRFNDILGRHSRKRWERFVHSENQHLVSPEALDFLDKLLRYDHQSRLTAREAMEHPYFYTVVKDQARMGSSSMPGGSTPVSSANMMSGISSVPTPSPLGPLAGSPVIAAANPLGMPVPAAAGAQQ
T1 sequence (P67870 whole entry partner): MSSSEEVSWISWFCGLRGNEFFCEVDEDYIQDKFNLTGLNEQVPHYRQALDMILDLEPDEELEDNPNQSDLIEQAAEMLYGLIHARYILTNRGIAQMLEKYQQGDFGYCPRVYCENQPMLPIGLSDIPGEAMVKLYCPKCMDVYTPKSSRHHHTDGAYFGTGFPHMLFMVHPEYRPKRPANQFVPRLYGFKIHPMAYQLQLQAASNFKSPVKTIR

With `Clc1cccc(-n2c3ccncc3c3nc4cnccn4c32)c1` [Compound 1, 5-(3-chlorophenyl)-5H-pyrido[3″,4″:4′,5′]pyrrolo[3′,2′:4,5]imidazo[1,2-a]pyrazine], the IC50 with MIAPaCa-2 (pancreas) came to 1200 nM; with PC3 (prostate), 1500 nM; with HCT116 (colon), 1900 nM; in the assay on MDA-MB-231 (breast), 3900 nM; in the assay on MCF7 (breast), 5600 nM; with H1299 (lung), 2100 nM. Besides, the IC50 on recombinant human CK2 was 47 nM; in the assay on HL60 (leukemia) it was 3000 nM; in the assay on A375 (melanoma), 4400 nM.
